Data reported in patent US20230372293A1, “SIRT1 INHIBITOR OR ANTAGONIST FOR USE IN PREVENTING AND/OR TREATING AN HPV INDUCED TUMOUR” (UNIVERSITA' DEGLI STUDI DEL PIEMONTE ORIENTALE "A. AVOGADRO", priority 2020, published 2023).
Where a SMILES comes first, the peptide text is derived from it. The star is where a group is joined. Cbz = O=C(OCc1ccccc1)*

Experiments:
[1] = test system: CaSki cells; test: Cell cycle analysis by propidium iodide flow cytometry, EX527 and doxorubicin; type: cell-based; details: DX 0.5 μM 16 h
Method: (§1) For this purpose, HeLa and CaSki cells were treated with EX527 (80 μM) for 24 h, or with an equal volume of DMSO solvent and after this period elapsed, they were treated with DX (1.5 μM for HeLa, 0.5 μM for CaSki) for a further 16 h. After this incubation period at 37° C., the cells were labelled with propidium iodide (IP). Propidium iodide (3,8-diamino-5-diethylmethyl aminopropyl-6-phenylphenanthridine diiodide) (IP) is a synthetic dye characterised by low fluorescence (red-orange), capable of selectively binding to nucleic acids. It is known that the DNA content varies according to the phase of the cycle in which a cell is found. In particular, the G2 phase and mitosis (M) have twice as much DNA as the G1 phase, while during the DNA synthesis phase (S phase), the cell has an intermediate amount of DNA between the content in G1 and G2. Since the apoptotic cells, once resuspended in an appropriate buffer, release small DNA fragments, a reduction in IP fluorescence (related to the decrease in DNA content) can be observed in them. […] The cytofluorimetric analysis was performed on the FACSCalibur flow cytometer instrument (BD Biosciences) (excitation at 488 nm and emission 400 nm) and the results were analysed with the FlowJo programme.

[2] = test system: HeLa cells; test: as above; type: cell-based; details: DX 1.5 μM 16 h
Method: as §1

[3] = test system: CaSki cells; test: Annexin V-FITC/IP apoptosis assay, EX527 and doxorubicin; type: cell-based; details: DX 0.5 μM 24 h, FIG. 6
Method: (§2) For this purpose, HeLa, CaSki, and NOKE6E7 cells were treated with EX527 (80 μM) for 24 h, or with an equal volume of DMSO solvent and after this period elapsed, they were treated with DX (1.5 μM for HeLa and NOKE6E7, 0.5 μM for CaSki) for a further 24 h. After this incubation period at 37° C., the cells were processed using the “Annexin V-FITC Apoptosis Detection Kit” (BioLegend), a technique that allows the presence of apoptotic and necrotic cells to be detected by cytofluorimetric analysis. This assay exploits the ability of the annexin protein to bind to phosphatidylserine (PS) and thus give fluorescence in green thanks to the conjugated fluorophore (FITC, fluorescein isothiocyanate). PS is a phospholipid normally found on the inner side of the cell membrane. During apoptosis processes, on the other hand, PS is exposed to the outside and allows annexin V to bind to it. […] Subsequently, 400 μl of Annexin V Binding Buffer were added to each tube and the cells were analysed on the FACSCalibur flow cytometer instrument (BD Biosciences) (excitation at 488 nm, emission 518 nm and 400 nm for FITC and IP respectively). The results were then analysed with the FlowJo programme.

[4] = test system: HeLa cells; test: as above; type: cell-based; details: DX 1.5 μM 24 h, FIG. 6
Method: as §2

[5] = test system: NOKE6E7 cells; test: as above; type: cell-based, human; details: DX 1.5 μM 24 h, FIG. 6
Method: as §2

[6] = test system: CaSki cells; test: MTT cell viability, EX527 and doxorubicin; type: cell-based; details: DX 0.5 μM for 16, 40, 64 h
Method: (§3) The observations described above prompted an analysis of whether HPV-positive cells in which SIRT1 is inhibited with consequent reduced expression of E6 and E7 and restoration of p53, could be more sensitive to the treatment with genotoxic drugs, such as doxorubicin (DX, SIGMA ALDRICH). Firstly, cell viability was determined following treatment with EX527 in combination with doxorubicin against HeLa and CaSki cells, using the MTT (3-(4,5-dimethylthiazol-2-yl)-2,5-diphenyltetrazolium bromide; SIGMA-ALDRICH) colorimetric assay. To this purpose, the cells were exposed to a concentration of EX527 of 80 μM or equal volume of solvent, dimethyl sulfoxide (DMSO, SIGMA ALDRICH) for 24 h, after this period elapsed the cells were treated with DX (1.5 μM for HeLa, 0.5 μM for CaSki) for a further 16, 40, 64 h. Subsequently, the supernatant was removed, the well was washed with PBS1× (SIGMA-ALDRICH) and incubated for 2 hours at 37° C. and 5% of CO2 with DMEM medium supplemented with 500 μg/mL MTT solution. […] On these solubilised cells, absorbance was measured at a wavelength of 570 nm, using the Victor3 multiplate reader spectrophotometer (Perkin Elmer). The absorbance value obtained from the sample treated with the carrier alone at the maximum dose was considered equal to 100% viability and the other values were related thereto.

[7] = test system: HeLa cells; test: MTT cell viability, EX527 and doxorubicin; type: cell-based; details: DX 1.5 μM for 16, 40, 64 h
Method: as §3

[8] = test system: CaSki cells; test: Western blot of E6 and E7 with proteosome inhibitor MG132; type: cell-based; details: DMSO then MG132 30 μM 8 h, vs DMSO control
Method: (§4) In order to determine whether the inhibition of E6 or E7 proteins was due to a transcriptional or post-translational modification, HeLa or CaSki cells, pre-treated for 48 h with EX527 at a concentration of 80 μM or equal volume of solvent, dimethyl sulfoxide (DMSO, SIGMA ALDRICH), were incubated with a proteosome inhibitor, MG132 (SIGMA ALDRICH) for 8 h at a concentration of 30 μM. After this incubation period at 37° C., the expression levels of viral E6 and E7 proteins were tested. The α-tubulin protein was included as an internal loading control. The cells were lysed with RIPA buffer (50 mM Tris-HCl pH 7.4; 150 mM NaCl; 1 mM EDTA; 1% Nonidet P-40; 0.1% SDS; 0.5% deoxycholate; protease inhibitors) for 30 min on ice. The samples were subsequently centrifuged for 10 minutes at 13000 rpm at 4° C. to remove cellular debris and then the proteins were quantified using the Bradford method (BIO-RAD). 30 μg of protein extract were taken, to which the appropriate amount of Laemmli sample buffer (50 mM Tris-HCl pH 6.8, 2% SDS, 10% glycerol, 2% β-mercaptoethanol) was added. The thus obtained solution was heated to 95° C. for 5 minutes and separated by polyacrylamide (12%)-SDS page gel electrophoresis. […]

[9] = test system: HeLa cells; test: as above; type: cell-based; details: DMSO then MG132 30 μM 8 h, vs DMSO control
Method: as §4

`COc1cccc2c1C(=O)c1c(O)c3c(c(O)c1C2=O)C[C@@](O)(C(=O)CO)C[C@@H]3O[C@H]1C[C@H](N)[C@H](O)[C@H](C)O1` [DX, doxorubicin] was tested, and the “cell death (sub-G0/G1 phase), DX” value [1] was “increase in cell death (sub-G0/G1 phase)”, the “cell death (sub-G0/G1 phase), DX” value [2] was “increase in cell death (sub-G0/G1 phase)” and the “percentage of apoptotic cells, DX” value [3] was “increase in the percentage of apoptotic cells”. For the same compound, the “percentage of apoptotic cells, DX” value [4] was “increase in the percentage of apoptotic cells”, the “percentage of apoptotic cells, DX” value [5] was “increase in the percentage of apoptotic cells” and the “mortality rate (MTT), DX alone” value [6] was “mortality rate increases more”. The “mortality rate (MTT), DX alone” value [7] was “mortality rate increases more”.
In the case of `CC(C)C[C@@H](C=O)NC(=O)[C@H](CC(C)C)NC(=O)[C@H](CC(C)C)NC(=O)OCc1ccccc1` [MG132] (Cbz-Leu-Leu-Leu-aldehyde), the “expression of E6 and E7 after DMSO plus MG132” value [8] is reported as “recovery in the expression of the tested proteins” and the “expression of E6 and E7 after DMSO plus MG132” value [9] is reported as “recovery in the expression of the tested proteins”.
